Data from PubChem BioAssay AID248 (DTP/NCI, 2004).
Several values for one entry are separate records, joined by “and”; a condition that tells them apart may be missing. Identical values can stand only once. Inconclusive results and toxic doses are left out. No stated cut-off is given here; in the data, active means T/C of 150% or more; inactive means T/C below 125%.

Tested on: L1210 leukemia ip in BDF1 mice, survival T/C
Assay: NCI In Vivo Anticancer Drug Screen. Data for tumor model L1210 Leukemia (intraperitoneal) in B6D2F1 (BDF1) mice
Conditions: endpoint: mean survival time, higher = longer survival
Procedure, shortened: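 In this screen, tumor-bearing mice given compound are compared to those given vehicle, and their survival values are reported as a treated-to-control quotient.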

[1] = dose: 50.0 mg/kg/injection, schedule: Q04DX003 (ip), vehicle: saline with Tween-80
[2] = dose: 100.0 mg/kg/injection, schedule: Q01DX001 (ip), vehicle: saline with Tween-80
[3] = dose: 100.0 mg/kg/injection, schedule: Q01DX009 (ip), vehicle: saline with Tween-80
[4] = dose: 100.0 mg/kg/injection, schedule: Q04DX003 (ip), vehicle: saline with Tween-80
[5] = dose: 200.0 mg/kg/injection, schedule: Q01DX001 (ip), vehicle: saline with Tween-80
[6] = dose: 200.0 mg/kg/injection, schedule: Q01DX009 (ip), vehicle: saline with Tween-80
[7] = dose: 200.0 mg/kg/injection, schedule: Q04DX003 (ip), vehicle: saline with Tween-80
[8] = dose: 400.0 mg/kg/injection, schedule: Q04DX003 (ip), vehicle: saline with Tween-80
[9] = dose: 100.0 mg/kg/injection, schedule: Q01DX001 (ip), vehicle: carboxymethylcellulose (CMC)
[10] = dose: 200.0 mg/kg/injection, schedule: Q01DX001 (ip), vehicle: carboxymethylcellulose (CMC)
[11] = dose: 400.0 mg/kg/injection, schedule: Q01DX001 (ip), vehicle: carboxymethylcellulose (CMC)
[12] = dose: 50.0 mg/kg/injection, schedule: Q01DX009 (ip), vehicle: saline with Tween-80
[13] = dose: 25.0 mg/kg/injection, schedule: Q01DX009 (ip), vehicle: saline with Tween-80
[14] = dose: 100.0 mg/kg/injection, schedule: Q04DX002 (ip), vehicle: Klucel (hydroxypropylcellulose) (HPC)
[15] = dose: 200.0 mg/kg/injection, schedule: Q04DX002 (ip), vehicle: Klucel (hydroxypropylcellulose) (HPC)
[16] = dose: 400.0 mg/kg/injection, schedule: Q04DX002 (ip), vehicle: Klucel (hydroxypropylcellulose) (HPC)
[17] = dose: 100.0 mg/kg/injection, schedule: Q04DX003 (ip), vehicle: Klucel (hydroxypropylcellulose) (HPC)
[18] = dose: 200.0 mg/kg/injection, schedule: Q04DX003 (ip), vehicle: Klucel (hydroxypropylcellulose) (HPC)
[19] = dose: 400.0 mg/kg/injection, schedule: Q04DX003 (ip), vehicle: Klucel (hydroxypropylcellulose) (HPC)
[20] = dose: 50.0 mg/kg/injection, schedule: Q01DX001 (ip), vehicle: saline
[21] = dose: 100.0 mg/kg/injection, schedule: Q01DX001 (ip), vehicle: saline
[22] = dose: 200.0 mg/kg/injection, schedule: Q01DX001 (ip), vehicle: saline
[23] = dose: 400.0 mg/kg/injection, schedule: Q01DX001 (ip), vehicle: saline
[24] = dose: 100.0 mg/kg/injection, schedule: Q01DX009 (ip), vehicle: carboxymethylcellulose (CMC)
[25] = dose: 100.0 mg/kg/injection, schedule: Q04DX003 (ip), vehicle: carboxymethylcellulose (CMC)
[26] = dose: 200.0 mg/kg/injection, schedule: Q01DX009 (ip), vehicle: carboxymethylcellulose (CMC)
[27] = dose: 200.0 mg/kg/injection, schedule: Q04DX003 (ip), vehicle: carboxymethylcellulose (CMC)
[28] = dose: 400.0 mg/kg/injection, schedule: Q01DX009 (ip), vehicle: carboxymethylcellulose (CMC)

Measured: T/C

CCOC(=O)c1ccc(NC(=O)Nc2cccc3c(O)cccc23)cc1
inactive: [1] 102 % of control | [2] 86 % of control | [3] 86 % of control | dose: 100.0 mg/kg/injection, schedule: Q04DX002 (ip), vehicle: saline with Tween-80 97 % of control and 106 % of control | [4] 94 % of control | [5] 86 % of control | [6] 89 % of control | dose: 200.0 mg/kg/injection, schedule: Q04DX002 (ip), vehicle: saline with Tween-80 97 % of control and 91 % of control | [7] 93 % of control and 87 % of control | dose: 400.0 mg/kg/injection, schedule: Q01DX009 (ip), vehicle: saline with Tween-80 89 % of control | dose: 400.0 mg/kg/injection, schedule: Q04DX002 (ip), vehicle: saline with Tween-80 89 % of control and 91 % of control | [8] 97 % of control

COc1cc2c(cc1OC)-c1c(OC)c(OC)cc3c1[C@H](C2)N(C)CC3
inactive: [9] 96 % of control | [10] 100 % of control | [11] 100 % of control

CCOC(=O)CCC(C)(c1ccc(O)cc1)c1ccc(O)cc1
inactive: [12] 98 % of control | [1] 93 % of control | [3] 96 % of control | [4] 93 % of control | [6] 96 % of control | [7] 102 % of control

O=C(OCCCl)OCCCl
inactive: [13] 98 % of control | [12] 103 % of control and 91 % of control | [3] 93 % of control | [6] 92 % of control

C=C(C)COC(=O)Nc1cccc(OC(=O)NC)c1
inactive: [2] 97 % of control | [5] 97 % of control | dose: 400.0 mg/kg/injection, schedule: Q01DX001 (ip), vehicle: saline with Tween-80 94 % of control

Cc1ccc(N(C)CC#CCOc2ccc(Br)cc2)cc1
inactive: [14] 105 % of control | [15] 99 % of control | [16] 99 % of control

O=C(Nc1ccc(Br)cc1C(F)(F)F)C(F)(F)F
inactive: dose: 50.0 mg/kg/injection, schedule: Q04DX003 (ip), vehicle: Klucel (hydroxypropylcellulose) (HPC) 102 % of control | dose: 100.0 mg/kg/injection, schedule: Q01DX001 (ip), vehicle: Klucel (hydroxypropylcellulose) (HPC) 100 % of control | [17] 104 % of control | dose: 200.0 mg/kg/injection, schedule: Q01DX001 (ip), vehicle: Klucel (hydroxypropylcellulose) (HPC) 94 % of control | [18] 112 % of control | dose: 400.0 mg/kg/injection, schedule: Q01DX001 (ip), vehicle: Klucel (hydroxypropylcellulose) (HPC) 97 % of control | [19] 105 % of control

CSc1nc(C)c(NC(C)=O)c(=O)[nH]1
inactive: [20] 98 % of control | [21] 101 % of control | [22] 98 % of control | [23] 104 % of control

Cc1ccc(S(=O)(=O)N2CCc3ccccc3C=C2Br)cc1
inactive: [9] 100 % of control | [10] 102 % of control | [11] 112 % of control

CCCCCCCCCCCCCCCCCCNC(=O)Nc1cccc2ccccc12
inactive: [24] 87 % of control | [14] 101 % of control | dose: 100.0 mg/kg/injection, schedule: Q04DX002 (ip), vehicle: carboxymethylcellulose (CMC) 87 % of control | [25] 106 % of control | [26] 87 % of control | [15] 101 % of control | dose: 200.0 mg/kg/injection, schedule: Q04DX002 (ip), vehicle: carboxymethylcellulose (CMC) 93 % of control and 95 % of control | [27] 96 % of control | [28] 94 % of control and 97 % of control | dose: 400.0 mg/kg/injection, schedule: Q04DX002 (ip), vehicle: carboxymethylcellulose (CMC) 93 % of control and 88 % of control | dose: 400.0 mg/kg/injection, schedule: Q04DX003 (ip), vehicle: carboxymethylcellulose (CMC) 90 % of control

C[N+](C)(C)c1ccc(C(=O)[O-])cc1
inactive: [20] 97 % of control | [21] 97 % of control | [22] 97 % of control | [23] 103 % of control

CC1(N)CCC(C(C)(C)N)CC1 (stereo not drawn)
inactive: [13] 103 % of control | [12] 97 % of control | [3] 92 % of control

Nc1nc(N)c2[nH]cnc2n1 (tested in a mixture with another compound)
inactive: [9] 93 % of control | [10] 89 % of control | [11] 94 % of control

CCCCCCCC(=O)Nc1cccc(O)c1
inactive: [4] 96 % of control | [7] 95 % of control | [8] 96 % of control

CC(C)/[N+]([O-])=C/C=C/c1ccccc1
inactive: [17] 96 % of control | [18] 97 % of control | [19] 100 % of control

O=C1c2ccccc2C(=O)N1OCCCCON1C(=O)c2ccccc2C1=O
inactive: [20] 100 % of control | [21] 106 % of control | [22] 106 % of control | [23] 102 % of control

CN(C)NP(=O)(Nc1ccccc1)Nc1ccccc1
inactive: [24] 103 % of control | [26] 93 % of control | [28] 98 % of control

CCSc1ccc2c(cc1=O)C(NC(=S)Nc1ccccc1)CCc1cc(OC)c(OC)c(OC)c1-2 (stereo not drawn)
inactive: [25] 102 % of control | [27] 107 % of control

Cc1ccc(S(=O)(=O)NNC(=O)c2ccccc2NCC(O)C(O)C(O)CO)cc1 (stereo not drawn)
inactive: [9] 98 % of control | [10] 96 % of control | [11] 98 % of control

O=NN(CCCl)C(=O)Nc1ccc2c3c(cccc13)-c1ccccc1-2
inactive: dose: 118.0 mg/kg/injection, schedule: Q01DX009 (ip), vehicle: carboxymethylcellulose (CMC) 111 % of control | dose: 177.0 mg/kg/injection, schedule: Q01DX009 (ip), vehicle: carboxymethylcellulose (CMC) 119 % of control | dose: 266.0 mg/kg/injection, schedule: Q01DX009 (ip), vehicle: carboxymethylcellulose (CMC) 113 % of control | dose: 600.0 mg/kg/injection, schedule: Q01DX001 (ip), vehicle: carboxymethylcellulose (CMC) 117 % of control | dose: 600.0 mg/kg/injection, schedule: Q01DX009 (ip), vehicle: carboxymethylcellulose (CMC) 98 % of control

NSc1ccccc1[N+](=O)[O-]
inactive: [17] 100 % of control | [18] 105 % of control | [19] 100 % of control

O=C(Nc1ccccc1)OCCCC1CCCC1
inactive: dose: 100.0 mg/kg/injection, schedule: Q01DX009 (sc), vehicle: olive oil, sesame oil, peanut oil 108 % of control | dose: 200.0 mg/kg/injection, schedule: Q01DX009 (sc), vehicle: olive oil, sesame oil, peanut oil 105 % of control | dose: 400.0 mg/kg/injection, schedule: Q01DX009 (sc), vehicle: olive oil, sesame oil, peanut oil 100 % of control

CCOC(=O)CNc1cccc(C)c1C
inactive: [14] 100 % of control | [15] 102 % of control | [16] 100 % of control
